The record followed here is patent US20250009819A1, “NOVEL PROBIOTICS AND USE THEREOF” (PBLBIOLAB CO., LTD., priority 2021, published 2025).

The subject of one assay is BDNF. As to the kind of experiment: BDNF expression in SH-SY5Y cells. The assay is classed as cell-based. To be noted: LPS 200 ng/ml; lactic acid bacteria 1×10^4 CFU/ml; 24 h. As to the method: SH-SY5Y cells obtained from the Korean Cell Line Bank were cultured in DMEM medium supplemented with 10% FBS and 1% antibiotics, and dispensed at 2×10^6 cells per well in a 12-well plate. Then, LPS (200 ng/ml) was added to each well along with lactic acid bacteria (1×10^4 CFU/ml) and incubated for 24 h. The cells and supernatants were collected, sonicated and centrifuged, and the amount of BDNF in the supernatant was measured by ELISA kit.

The next assay relates to Neuropeptide Y (NPY). As to the kind of experiment: Neuropeptide Y (NPY) expression in PC12 phaeochromocytoma cells. The assay is classed as cell-based. Particulars: LPS 200 ng/ml; lactic acid bacteria 1×10^4 CFU/ml; 24 hr. The procedure: PC12 cells obtained from the Korean Cell Line Bank were cultured in DMEM medium supplemented with 10% FBS and 1% antibiotics, and dispensed at 1×10^6 cells per well in a 12-well plate. Then, LPS (200 ng/ml) was added to each well along with lactic acid bacteria (1×10^4 CFU/ml) and incubated for 24 hr. The cells and supernatants were collected, sonicated and centrifuged, and the amount of NPY in the supernatant was measured by ELISA kit.

Another assay relates to gut microbiota. As to the kind of experiment: LPS production in gut microbiota (ELISA). The assay is classed as cell-based. To be noted: human feces culture; lactic acid bacteria 1×10^6 CFU/mL; anaerobic 24 hr. The procedure: Fresh human feces were suspended in anaerobic medium (GAM, Nissui Pharmaceutical Co., Ltd., Japan) and allowed to stand for 10 min. The supernatant was diluted with 10,000-fold anaerobic medium, 0.05 mL of the dilution was transplanted into 5 mL of freshly made anaerobic medium, and lactic acid bacteria (1×10^6 CFU/mL) were implanted and incubated anaerobically for 24 hr.

Assay [1] in a line: Antioxidant activity (DPPH, in vitro). The assay is classed as biochemical. To be noted: DPPH 0.2 mM; lactic acid bacteria suspension 1×10^8 CFU/ml; 37° C. 20 min. In short, it runs like this:
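Lactic acid bacteria suspension (1×10^8 CFU/ml) or vitamin C (1 g/ml) was mixed with 0.2 mM ethanolic DPPH and incubated 20 min at 37° C. After centrifugation, supernatant absorbance at 517 nm gave the antioxidant activity.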

The subject of assay [2] is animals with LPS-induced cognitive impairment. As to the kind of experiment: Animals with LPS-induced cognitive impairment: cognitive improvement, hippocampus indicators. The assay is classed as in vivo, C57BL/6 male mice. To be noted: LPS-treated mice, 1×10^9 CFU/mouse or sulfasalazine 50 mg/kg once a day for 5 days. As to the method: (§1) Hippocampus, colon, and spleen tissues were homogenized by adding 1 ml of RIPA buffer (Gibco) containing protease inhibitor cocktail and centrifuged at 4° C., 13000 rpm for 15 min to obtain supernatant. Indicators of this supernatant were measured using an ELISA kit (Ebioscience).
The Y-shaped maze measurement device is shaped like an alphabetical Y with three arms extending from it, each arm being 25 cm long, 14 cm high, 5 cm wide, and positioned at the same angle. At the end of one arm of the Y-shaped maze, the animal was placed with its head facing out and allowed to freely navigate the arm for 8 minutes. The animal's movements were recorded, and reported as arm entries when the animal entered the arm with its hind paw, and the animal's movement was represented by an alternation, which was defined as one alternation when the animal passed through the three arms in succession. The amount of spontaneous alternation behavior was expressed as a percentage between the actual number of alternations and the maximum possible number of alternations (i.e., the total number of […] minus 2).
The experiment was conducted in a box (40×40×40 cm) made so that the outside could not be seen from the inside. Two objects (A, A′) of the same shape and size were fixedly disposed in a box and the mouse was relocated to start from the center of the box. Then, the number of times the mouse made contact with the two objects was recorded for 10 minutes. After 24 hours, one of the two objects was replaced with a new object (A, B). Then, one original object and one new object were prepared, and the animal's exploration time was measured.
C57BL/6 male mice (5 weeks old, 19-21 g) were divided (6 mice in each group) and acclimatized to the laboratory for 1 week. To induce intestinal and brain diseases, mice were intraperitoneally administered Escherichia coli-derived LPS (10 μg/kg) once daily for 5 days. […] Experimental animals in the normal group were orally administered with a physiological saline solution, which was used to suspend lactic acid bacteria. The day following the conclusion of sample administration, the experimental animals were sacrificed, and samples from the brain hippocampus, colon, and spleen were collected. In the Hippocampus, inflammatory indicators, such as IFN-γ, TNF-α, and IL-10, were measured using ELISA. In the colon, intestinal length and inflammatory indicators, such as IFN-γ, TNF-α, and IL-10, were measured. In the spleen, Th1 cells and Treg cells were measured by FACS (Fluorescence-Activated Cell Sorting).

The subject of another assay is healthy animal. Kind of assay: Healthy animal: colon parameters. The assay is classed as in vivo, C57BL/6 male mice. To be noted: healthy mice, 1×10^9 CFU/mouse orally once a day for 5 days. As to the method:
To 100 mg of colon tissue, 200 μl of 10 mM potassium phosphate buffer (pH 7.0) containing 0.5% hexadecyl trimethyl ammonium bromide was added and homogenized. Then, the supernatant was obtained by centrifugation for 10 minutes at 4° C. and 10,000 g. A volume of 50 μl of the supernatant was added to 0.95 mk of reaction solution (containing 1.6 mM tetramethyl benzidine and 0.1 mM H2O2), reacted at 37° C., and absorbance was monitored over time at 650 nm.
as §1
C57BL/6 male mice (5 weeks old, 19-21 g) were divided (6 mice in each group) and acclimatized to the laboratory for 1 week. The mice were orally administered once a day for 5 days with lactic acid bacteria as a test sample suspended in physiological saline solution at a concentration of 1×10^9 CFU per mouse (NK210 alone (LR): 1×10^9 CFU/mouse, NK219 alone (BL): 1×10^9 CFU/mouse, combined (210+219): 210, 8×10^8 CFU/mouse and 219, 2×10^8 CFU/mouse). […] The day following the conclusion of sample administration, the experimental animals were sacrificed, and samples from the brain hippocampus, colon, and spleen were collected. In the Hippocampus, inflammatory indicators, such as IFN-γ, TNF-α, and IL-10, were measured using ELISA. In the colon, intestinal length and inflammatory indicators, such as IFN-γ, TNF-α, and IL-10, were measured. In the spleen, Th1 cells and Treg cells were measured by FACS (Fluorescence-Activated Cell Sorting).

As for Lactococcus lactis NK209, in the assay with BDNF, the “SHSY5Y cell Induction of BDNF expression” value is reported as “+ (weakly (+; >20-60%))”. Further, the “PC12 cell Induction of NPY expression” value in the assay on Neuropeptide Y (NPY) is on record as “+ (weakly (+; >20-60%))”. For the same substance, the “Gut microbiota Inhibition of LPS production” value (shortened to “Gut microbiota Inhibition”) in the assay with gut microbiota is recorded as “+ (weakly (+; >20-60%))”. The Antioxidant activity entry in assay [1] is recorded as “+ (weakly (+; >20-60%))”.

Take Bifidobacterium longum NK219: the “SHSY5Y cell Induction of BDNF expression” value in the assay on BDNF is “+++ (very strongly (+++; >90%))”. The “PC12 cell Induction of NPY expression” value in the assay with Neuropeptide Y (NPY) is given as “++ (strongly (++; >60-90%))”. In addition, in assay [2], the “Exoporation (%) (in NOR task)” value worked out at 76.97% and the “Spontaneous alteration (%) (in Y-maze task)” value is 71.06%. Besides, in assay [2] (hippocampus), the IFN-γ/IL-10 is listed as 0.50, the IL-10 is recorded as 47.71 pg/mg, the “Interferon (IFN)-γ” value came out at 24.09 pg/mg and the TNF-α was 10.72 pg/mg. This substance yielded a TNF-α/IL-10 in assay [2] (hippocampus) of 0.24. Also, the “Gut microbiota Inhibition” value in the assay with gut microbiota is reported as “+++ (very strongly (+++; >90%))”. In the assay with healthy animal, the “Colon (cm)” value is 5.03 cm, the IFN-γ/IL-10 is 1.52, the IL-10 worked out at 42.89 pg/mg and the “Interferon (IFN)-γ” value was found to be 64.83 pg/mg. In addition, in the assay with healthy animal, the MPO activity is 3.53 μUnit/mg, the TNF-a/IL-10 was 0.37 and the TNF-α is 15.73 pg/mg. Further, the Antioxidant activity result in assay [1] is reported as “+++ (very strongly (+++; >90%))”.

As for Lactobacillus rhamnosus NK210, the “SHSY5Y cell Induction of BDNF expression” value in the assay with BDNF is recorded as “++ (strongly (++; >60-90%))”. Moreover, the “PC12 cell Induction of NPY expression” value in the assay with Neuropeptide Y (NPY) is recorded as “+++ (very strongly (+++; >90%))”. In addition, in assay [2], the “Exoporation (%) (in NOR task)” value came to 76.00% and the “Spontaneous alteration (%) (in Y-maze task)” value was 69.36%. Further, in assay [2] (hippocampus), the IFN-γ/IL-10 came to 0.52, the IL-10 was found to be 46.94 pg/mg, the “Interferon (IFN)-γ” value is 23.04 pg/mg and the TNF-α/IL-10 was 0.23. The “Gut microbiota Inhibition” value in the assay on gut microbiota is reported as “+++ (very strongly (+++; >90%))”. In addition, in the assay with healthy animal, the “Colon (cm)” value came out at 5.12 cm, the IFN-γ/IL-10 was 1.40, the IL-10 is on record as 39.95 pg/mg and the “Interferon (IFN)-γ” value amounted to 55.75 pg/mg. In the assay on healthy animal, this substance gave an MPO activity of 4.18 μUnit/mg, a TNF-a/IL-10 of 0.34 and a TNF-α of 13.40 pg/mg. Further, the Antioxidant activity result in assay [1] is on record as “+++ (very strongly (+++; >90%))”.
